Reference: article PMC11995216, “End-to-End Backbone Cyclization Enhances Passive Permeability of bRo5 Oligomeric Depsipeptides with Nonlinear Size Dependence” (ACS Medicinal Chemistry Letters, 2025)
Where “and” joins values, the source holds several entries; their conditions need not be identical. Equal entries are not always repeated. Where two headings read alike, the source gives them in different places. Non-standard residues stand in square brackets, D forms with d. Residues, ends and D or L forms follow the SMILES beside them. *: point of attachment. Ahp(2) = CCCCC[C@H](N)C(=O)O; dNMeA = CN[C@H](C)C(=O)O; Boc = CC(C)(C)OC(=O)*; OBn = c1ccc(CO*)cc1

Assays:
[1] = calculated using Supplement Equation 1, UV detection
PAMPA [2] = conditions: UV detection
[3] = UV detection
PAMPA [4] = conditions: UV detection, initial concentration 500 uM
[5] = PAMPA, 500 uM
in vitro = conditions: PAMPA, Papp
[6] = initial concentration 500 uM, UV detection
[7] = Acceptor Concentration (uM) / [row 1]
[8] = Acceptor Concentration (uM) / [row 2]
[9] = Acceptor Concentration (uM) / [row 3]
[10] = Acceptor Concentration (uM) / [row 4]
[11] = Acceptor Concentration (uM) / [row 5]
[12] = Acceptor Concentration (uM) / [row 6]
[13] = Acceptor Concentration (uM) / [row 7]
[14] = Acceptor Concentration (uM) / [row 8]
[15] = Acceptor Concentration (uM) / [row 9]
[16] = Acceptor Concentration (uM) / [row 10]

CCCCC[C@H](OC(=O)[C@@H](C)N(C)C(=O)[C@H](CCCCC)OC(=O)[C@@H](C)N(C)C(=O)[C@H](CCCCC)OC(=O)[C@@H](C)N(C)C(=O)[C@H](CCCCC)OC(=O)[C@@H](C)N(C)C(=O)OC(C)(C)C)C(=O)OCc1ccccc1 [Compound L1.4]
%T ([1]; Well 1 / %T, Well 1): 0.25% (2×) and 0.31% (2×) | %T ([1]; Well 2 / %T, Well 2): 0.3% (2×) and 0.25% (2×) | %T ([1]; Well 3 / %T, Well 3): 0.3% (2×) and 0.28% (2×) | %T ([1]; Well 4 / %T, Well 4): 0.31% (2×) and 0.32% (2×) | %T ([1]; Well 5 / %T, Well 5): 0.33% (2×) and 0.26% (2×) | Papp (PAMPA [2]; Papp (x 10^-6 cm/s) / [row 1]): 1.61 ×10⁻⁶ cm/s | Papp (PAMPA [2]; Papp (x 10^-6 cm/s) / [row 2]): 2.02 ×10⁻⁶ cm/s | Papp (PAMPA [2]; Papp (x 10^-6 cm/s) / [row 3]): 2.01 ×10⁻⁶ cm/s | Papp (PAMPA [2]; Papp (x 10^-6 cm/s) / [row 4]): 2.03 ×10⁻⁶ cm/s | Papp (PAMPA [2]; Papp (x 10^-6 cm/s) / [row 5]): 2.24 ×10⁻⁶ cm/s | Papp (PAMPA [2]; Papp (x 10^-6 cm/s) / [row 6]): 2.09 ×10⁻⁶ cm/s | Papp (PAMPA [2]; Papp (x 10^-6 cm/s) / [row 7]): 1.63 ×10⁻⁶ cm/s | Papp (PAMPA [2]; Papp (x 10^-6 cm/s) / [row 8]): 1.88 ×10⁻⁶ cm/s | Papp (PAMPA [2]; Papp (x 10^-6 cm/s) / [row 9]): 2.15 ×10⁻⁶ cm/s | Papp (PAMPA [2]; Papp (x 10^-6 cm/s) / [row 10]): 1.75 ×10⁻⁶ cm/s | Papp (PAMPA [2]; Papp (x 10^-6 cm/s) / experiment 1): 1.61 ×10⁻⁶ cm/s | Papp (PAMPA [2]; Papp (x 10^-6 cm/s) / experiment 2): 2.02 ×10⁻⁶ cm/s | Papp (PAMPA [2]; Papp (x 10^-6 cm/s) / experiment 3): 2.01 ×10⁻⁶ cm/s | Papp (PAMPA [2]; Papp (x 10^-6 cm/s) / experiment 4): 2.03 ×10⁻⁶ cm/s | Papp (PAMPA [2]; Papp (x 10^-6 cm/s) / experiment 5): 2.24 ×10⁻⁶ cm/s | Papp (PAMPA [2]; Papp (x 10^-6 cm/s) / experiment 6): 2.09 ×10⁻⁶ cm/s | Papp (PAMPA [2]; Papp (x 10^-6 cm/s) / experiment 7): 1.63 ×10⁻⁶ cm/s | Papp (PAMPA [2]; Papp (x 10^-6 cm/s) / experiment 8): 1.88 ×10⁻⁶ cm/s | Papp (PAMPA [2]; Papp (x 10^-6 cm/s) / experiment 9): 2.15 ×10⁻⁶ cm/s | Papp (PAMPA [2]; Papp (x 10^-6 cm/s) / experiment 10): 1.75 ×10⁻⁶ cm/s | % recovery ([3]; Well 1 / %R, Well 1): 94% | % recovery ([3]; Well 2 / %R, Well 2): 87% (2×) and 92% (2×) | % recovery ([3]; Well 3 / %R, Well 3): 99% (2×) and 87% (2×) | % recovery ([3]; Well 4 / %R, Well 4): 93% (2×) and 85% (2×) | % recovery ([3]; Well 5 / %R, Well 5): 87% (2×) and 86% (2×) | Acceptor Concentration (PAMPA [4]; [7]): 52.3 µM | Acceptor Concentration (PAMPA [4]; [8]): 57.9 µM | Acceptor Concentration (PAMPA [4]; [9]): 64.4 µM | Acceptor Concentration (PAMPA [4]; [10]): 61.4 µM | Acceptor Concentration (PAMPA [4]; [11]): 62.2 µM | Acceptor Concentration (PAMPA [4]; [12]): 61.3 µM | Acceptor Concentration (PAMPA [4]; [13]): 51.5 µM | Acceptor Concentration (PAMPA [4]; [14]): 55 µM | Acceptor Concentration (PAMPA [4]; [15]): 59.1 µM | Acceptor Concentration (PAMPA [4]; [16]): 51.7 µM | Acceptor Concentration (PAMPA [4]; Acceptor Concentration (uM) / experiment 1): 52.3 µM | Acceptor Concentration (PAMPA [4]; Acceptor Concentration (uM) / experiment 2): 57.9 µM | Acceptor Concentration (PAMPA [4]; Acceptor Concentration (uM) / experiment 3): 64.4 µM | Acceptor Concentration (PAMPA [4]; Acceptor Concentration (uM) / experiment 4): 61.4 µM | Acceptor Concentration (PAMPA [4]; Acceptor Concentration (uM) / experiment 5): 62.2 µM | Acceptor Concentration (PAMPA [4]; Acceptor Concentration (uM) / experiment 6): 61.3 µM | Acceptor Concentration (PAMPA [4]; Acceptor Concentration (uM) / experiment 7): 51.5 µM | Acceptor Concentration (PAMPA [4]; Acceptor Concentration (uM) / experiment 8): 55 µM | Acceptor Concentration (PAMPA [4]; Acceptor Concentration (uM) / experiment 9): 59.1 µM | Acceptor Concentration (PAMPA [4]; Acceptor Concentration (uM) / experiment 10): 51.7 µM | Δ % diffusion [5]: ↑14% | Papp at 500 uM (in vitro): 1.94 ± 0.22 ×10⁻⁶ cm/s | donor concentration after incubation ([6]; Well 1 / [donor], Well 1): 417 µM and 390 µM | donor concentration after incubation ([6]; Well 1 / [donor], Well 1, standard curve): 417 µM and 390 µM | donor concentration after incubation ([6]; Well 2 / [donor], Well 2): 379 µM and 406 µM | donor concentration after incubation ([6]; Well 2 / [donor], Well 2, standard curve): 379 µM and 406 µM | donor concentration after incubation ([6]; Well 3 / [donor], Well 3): 432 µM and 382 µM | donor concentration after incubation ([6]; Well 3 / [donor], Well 3, standard curve): 432 µM and 382 µM | donor concentration after incubation ([6]; Well 4 / [donor], Well 4): 404 µM and 364 µM | donor concentration after incubation ([6]; Well 4 / [donor], Well 4, standard curve): 404 µM and 364 µM | donor concentration after incubation ([6]; Well 5 / [donor], Well 5): 372 µM and 379 µM | donor concentration after incubation ([6]; Well 5 / [donor], Well 5, standard curve): 372 µM and 379 µM

CCCCC[C@H](NC(=O)[C@@H](C)N(C)C(=O)[C@H](CCCCC)NC(=O)[C@@H](C)N(C)C(=O)[C@H](CCCCC)NC(=O)[C@@H](C)N(C)C(=O)[C@H](CCCCC)NC(=O)[C@@H](C)N(C)C(=O)OC(C)(C)C)C(=O)OCc1ccccc1 [Compound L2.5] (Boc-[dNMeA][Ahp(2)][dNMeA][Ahp(2)][dNMeA][Ahp(2)][dNMeA][Ahp(2)]-OBn)
%T ([1]; Well 1 / %T, Well 1): 0.61% and 0.63% | %T ([1]; Well 2 / %T, Well 2): 0.61% and 0.6% | %T ([1]; Well 3 / %T, Well 3): 0.58% and 0.63% | %T ([1]; Well 4 / %T, Well 4): 0.6% and 0.62% | %T ([1]; Well 5 / %T, Well 5): 0.61% and 0.64% | Papp (PAMPA [2]; Papp (x 10^-6 cm/s) / [row 1]): 2.47 ×10⁻⁶ cm/s | Papp (PAMPA [2]; Papp (x 10^-6 cm/s) / [row 2]): 2.25 ×10⁻⁶ cm/s | Papp (PAMPA [2]; Papp (x 10^-6 cm/s) / [row 3]): 2.11 ×10⁻⁶ cm/s | Papp (PAMPA [2]; Papp (x 10^-6 cm/s) / [row 4]): 2.43 ×10⁻⁶ cm/s | Papp (PAMPA [2]; Papp (x 10^-6 cm/s) / [row 5]): 2.68 ×10⁻⁶ cm/s | Papp (PAMPA [2]; Papp (x 10^-6 cm/s) / [row 6]): 3.13 ×10⁻⁶ cm/s | Papp (PAMPA [2]; Papp (x 10^-6 cm/s) / [row 7]): 2.4 ×10⁻⁶ cm/s | Papp (PAMPA [2]; Papp (x 10^-6 cm/s) / [row 8]): 2.43 ×10⁻⁶ cm/s | Papp (PAMPA [2]; Papp (x 10^-6 cm/s) / [row 9]): 2.64 ×10⁻⁶ cm/s | Papp (PAMPA [2]; Papp (x 10^-6 cm/s) / [row 10]): 2.27 ×10⁻⁶ cm/s | % recovery ([3]; Well 1 / %R, Well 1): 84% and 83% | % recovery ([3]; Well 2 / %R, Well 2): 89% | % recovery ([3]; Well 3 / %R, Well 3): 90% and 91% | % recovery ([3]; Well 4 / %R, Well 4): 90% | % recovery ([3]; Well 5 / %R, Well 5): 82% and 92% | Acceptor Concentration (PAMPA [4]; [7]): 55.5 µM | Acceptor Concentration (PAMPA [4]; [8]): 54.4 µM | Acceptor Concentration (PAMPA [4]; [9]): 52.1 µM | Acceptor Concentration (PAMPA [4]; [10]): 59 µM | Acceptor Concentration (PAMPA [4]; [11]): 58.4 µM | Acceptor Concentration (PAMPA [4]; [12]): 67.8 µM | Acceptor Concentration (PAMPA [4]; [13]): 57.4 µM | Acceptor Concentration (PAMPA [4]; [14]): 59.8 µM | Acceptor Concentration (PAMPA [4]; [15]): 61.8 µM | Acceptor Concentration (PAMPA [4]; [16]): 56.8 µM | Acceptor Concentration, Ave [5]: 58.3 µM | Δ % diffusion [5]: ↑6% | donor concentration after incubation ([6]; Well 1 / [donor], Well 1): 362 µM and 345 µM | donor concentration after incubation ([6]; Well 2 / [donor], Well 2): 391 µM and 386 µM | donor concentration after incubation ([6]; Well 3 / [donor], Well 3): 400 µM and 397 µM | donor concentration after incubation ([6]; Well 4 / [donor], Well 4): 391 µM and 376 µM | donor concentration after incubation ([6]; Well 5 / [donor], Well 5): 351 µM and 405 µM
